# According to the METLIN SMRT retention time set (Domingo-Almenara et al. 2019):
# Test: gradient 5% acetonitrile 3 min, to 50% in 2 min, to 85% in 15 min, held 3 min, 100 µL/min
# Conditions: column: Zorbax Extend-C18 2.1 x 50 mm; eluents: water / acetonitrile, 0.1% formic acid
# How it was run: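 Mixtures of ~100 pure standards were chromatographed on a Zorbax Extend-C18 column (2.1 × 50 mm, 1.8 μm) at 100 μL/min using water and acetonitrile, each with 0.1% formic acid. Detection used a quadrupole time-of-flight mass spectrometer in positive and negative ionization mode, and data collection spanned 3 months. Retention time was obtained from adduct peaks picked computationally and each checked manually.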
row,Compound,RP-LC retention time [s]
1,CCCC(=O)Nc1ccc2c(c1)CN(C(=O)c1ccc(Cl)cc1)C(C(=O)N(C)C)C2 (stereo not drawn),748
2,CN1C(=O)c2cc(S(=O)(=O)Nc3ccc(F)cc3)ccc2Oc2cccnc21,906
3,Cc1sc2ccn(C)c(=O)c2c1C(=O)NCc1ccccc1F,751
4,Cc1cc2n(n1)CCC(=O)N2CCCC(=O)NC1CCCCC1,661
5,Cc1nnc(-c2ccc3ccn(CC(=O)Nc4ccc(Cl)cc4F)c3c2)o1,887
6,CCC(C)NC(=O)N1CCC(N2CCN(Cc3cccc(C)c3)C2=O)CC1 (stereo not drawn),784
7,O=C1[C@H]2CN(Cc3ccccc3)C[C@H]2C(=O)N1CCc1ccccc1,713
8,COc1cccc(-c2noc(CN3C(=O)COc4ccccc43)n2)c1OC,908
9,O=C(Cn1nc2n(c1=O)CCCC2)Nc1ccc(Cl)cc1,688
10,Cc1ccc(N2CCN(Cc3nc(-c4ccc(N5CCSCC5)nc4)no3)CC2)cc1,959
11,O=C(c1ccc2nc[nH]c2c1)N1CCC(c2nc(-c3ccccc3)no2)C1 (stereo not drawn),626
12,COC(=O)c1ccc(NC(=O)c2sc(-c3cn(C(C)C)c4ncccc34)nc2C)cc1,1090
13,CC(C)(C)n1nnnc1C1CC2(CCOCC2)C(=O)N1Cc1cccc(C(F)(F)F)c1 (stereo not drawn),862
14,O=C(Nc1nc(-c2nc3ccccc3s2)cs1)c1ccno1,810
15,Cc1ccc(C)c2sc(N(C)CC(=O)Nc3ccc(S(C)(=O)=O)cc3)nc12,892
16,COc1ccc(Cc2nnc3sc(Cc4ccc(OC)c(OC)c4)nn23)cc1,815
17,CCOC(=O)c1c(S(=O)(=O)N2CCC(C(=O)NC(C)CC)CC2)c(C)n(C)c1C (stereo not drawn),747
18,O=C(c1ccccc1)N1CCN(c2nc(CN3CCOCC3)cs2)CC1,852
19,Cc1ccc(CN2CCC3(CC2)CC(CC(=O)N2CCOCC2)CCO3)s1 (stereo not drawn),595
20,CCN(Cc1ccc(Cl)cc1)Cc1cc(=O)n2cc(C)ccc2n1,583
21,Cc1ccc2[nH]c3c(c2c1)CCNC31C(=O)Nc2ccccc21 (stereo not drawn),643
22,O=C(N1CC(Oc2ccc(-c3noc(-c4ccccc4)n3)cc2)C1)C1(c2ccccc2)CC1,1320

row,Compound,RP-LC retention time [s]
1,O=C(Nc1ccc(F)c(Cl)c1)C1CCCN(c2ccnc(-c3ccc(F)cc3)n2)C1 (stereo not drawn),780
2,CCc1nnc(-c2cc(C)n(CC(=O)Nc3ccc(F)c(Cl)c3)c2C)o1,861
3,O=S(=O)(c1cccc(-c2nnc(-c3ccccc3Br)o2)c1)N1CCCCC1,1160
4,COc1ccc(C(=O)Nc2ccc3nc(N4CC(C)CC(C)C4)cc(C(=O)O)c3c2)cc1 (stereo not drawn),680
5,CCc1ccc(S(=O)(=O)c2cnc(N3CCN(c4ccccc4Cl)CC3)nc2N)cc1,1290
6,Cc1cccc(C)c1NC(=O)Cn1nc2nc(N3CCCC(C)C3)ccn2c1=O (stereo not drawn),787
7,CCOc1ccc(Cc2nc(-c3ccc4c(c3)N(CC)C(=O)CO4)no2)cc1OCC,1070
8,CN1C(=O)C2(CCN(C(=O)COc3ccc(Cl)cc3)C2)c2ccccc21 (stereo not drawn),838
9,Cc1ccc(N2CC(c3nc(-c4cccc(-c5ccnn5C)c4)no3)CC2=O)cc1C (stereo not drawn),1010
10,Brc1ccc(OCc2nn3c(-c4cccnc4)nnc3s2)cc1,885
11,O=C(CCC(=O)N1Cc2cccn2-c2ccccc21)NCc1cccc(Cl)c1,957
12,CN(C)c1cc(C(N)=O)c2cccc(Cl)c2n1,638
13,Cc1ccc(C)c(NC(=O)C2CCN(S(=O)(=O)c3ccc4c(c3)sc(=O)n4C(C)C)CC2)c1,1070
14,O=c1ccc(-c2ccc3c(c2)OCO3)nn1CCc1nc(-c2ccc(Br)cc2)no1,1050
15,CC(C)OCCCNC(=O)Cn1c(=O)c2cccn2c2ccc(F)cc21,754
16,Cc1c(-c2ccnc(N3CCN(C)CC3)n2)cnc2nc(-c3cccs3)nn12,601
17,O=C(NCc1cccc(Cl)c1)C1CCN(C(=O)c2ncn3c2COC(c2ccccc2)C3)CC1 (stereo not drawn),760
18,CCOC(=O)C1=C(CN(C)Cc2ccccc2)NC(=O)NC1c1cccs1 (stereo not drawn),642
19,COc1ccc(NC(=O)Cn2c(N)nc(C)cc2=O)cc1F,593
20,CCN(CC)CCNc1ccc(-c2nc(-c3ccc(F)cc3)no2)nn1,667
21,COc1ncc(C(=O)NCCc2ccc(S(N)(=O)=O)cc2)cn1,608
22,COc1ccccc1N1CCN(CCN(C(=O)C2CCCCC2)c2ccccn2)CC1,816

row,Compound,RP-LC retention time [s]
1,O=C(CCc1nc(-c2ccc(N3CCCC3)cc2)no1)Nc1ccc(Br)cc1F,1220
2,Cc1ccc(NC(=O)c2cc(C(C)C)n3nccc3n2)c(F)c1,1270
3,O[C@@H](c1cc(C(F)(F)F)nc2c(C(F)(F)F)cccc12)[C@@H]1CCCCN1,829
4,CC1(C(=O)NC2CCCCCCC2)CN(S(C)(=O)=O)CC(=O)N1Cc1cccc(F)c1 (stereo not drawn),956
5,Cc1noc([C@@H]2CN(C(=O)c3occc3C)C[C@H]2COCC2CC2)n1,794
6,CC(C)NC(=O)C1CCC(=O)N1C1CCN(C(=O)C2CCC2)CC1 (stereo not drawn),584
7,CNC(=O)c1cc(=O)[nH]c2ccc(F)cc12,584
8,COc1ccc(CC(=O)N2CCC3(CC2)C(=O)N(C)c2ccccc23)cc1OC,752
9,CCN1c2ccc(C)cc2C(=O)NC12CCN(C(=O)c1ccccc1F)CC2,806
10,Cc1cc(C)cc(-c2nnc3ccc(Cl)nn23)c1,859
11,CN1c2ccc(Cl)cc2C(=O)NC12CCN(C(=O)NCc1ccccc1)CC2,789
12,O=C1c2ccccc2C(=O)N1CCSc1nnc2sc3ccccc3n12,696
13,Cc1cccc(C(=O)Nc2c(-c3ccccc3)nc3cc(C)ccn23)c1,674
14,COc1cccc(C(=O)N2CCc3c(c(-c4nc(C5CC5)no4)nn3C)C2)c1,800
15,Cc1ccccc1Nc1nc(-c2ccccc2)cs1,1120
16,CC1(C)N=C(N)N=C(N)N1c1ccc(OCCCOc2ccccc2)c(Cl)c1,812
17,COc1cccc(S(=O)(=O)N2CCC(c3noc(-c4cccc(F)c4)n3)CC2)c1,1110
18,Cc1cc(C)c2sc(N3CCN(C(=O)C4CCCN(S(C)(=O)=O)C4)CC3)nc2c1 (stereo not drawn),787
19,O=C(C1CCN(S(=O)(=O)c2ccc3nc(-c4ccccc4)[nH]c3c2)CC1)N1CCCC1,699
20,O=C(Cn1c(=O)c2cccn2c2ccc(F)cc21)Nc1ccccc1F,858
21,CC(=O)N1c2ccc(S(=O)(=O)N3CCC(c4ccncc4)CC3)cc2CC1C (stereo not drawn),620
22,O=C(Cn1nc2n(c1=O)CCCC2)Nc1cccc(Br)c1,686

row,Compound,RP-LC retention time [s]
1,CC(C)C(=O)Nc1ccc(C2(C(=O)N(C)Cc3ccccc3)CCCCC2)cc1,1080
2,CCc1nc(-c2csc(S(=O)(=O)N3CCCC(C(=O)Nc4cccc(C#N)c4)C3)c2)no1 (stereo not drawn),1010
3,O=C(c1ccoc1)N1CCCC(c2ccnc(-c3ccccc3)n2)C1 (stereo not drawn),892
4,CCn1cc(C(=O)Nc2ccc(F)c(C)c2)c2cccnc21,896
5,O=C(CSc1ccc(N2CCCC(C(=O)NC3CC3)C2)nn1)NCCc1ccc(Cl)cc1 (stereo not drawn),666
6,O=S(=O)(c1ccc(-c2noc(-c3cccc(Cl)c3)n2)cc1)N1CCCC1,1260
7,CCOC(=O)c1cc(C2CC2)nc2c1c(=O)n(CCc1c(C)noc1C)c(=O)n2C,980
8,Cc1ccc(-c2ncc(C(=O)O)c(-c3ccncc3)n2)cc1,693
9,Cc1nc(-c2cc(S(=O)(=O)N3CCN(c4ccccc4Cl)CC3)c(C)s2)cs1,1240
10,Cc1c(C)n(CCCN2CCOCC2)c2ncn3nc(C(C)N4C(=O)c5ccccc5C4=O)nc3c12 (stereo not drawn),662
11,Cc1cc2c(=O)n(CC(=O)Nc3ccc4c(c3)OCCO4)c3cccnc3n2n1,693
12,CCc1noc(C2(NC(=O)c3nn(C)c4ccccc34)CCCCC2)n1,1010
13,CCc1ccc(C(=O)CC2(O)C(=O)Nc3c(C)cccc32)cc1 (stereo not drawn),807
14,Cc1ccc(S(=O)(=O)N2CCCC(Cn3c(C4CC4)nc4cccnc43)C2)c(C)c1 (stereo not drawn),832
15,O=C(Nc1cnc(-c2ccccc2)nc1)c1cccc(F)c1,970
16,O=C(Nc1cc(F)cc(F)c1)NC1CCN(c2ccc(F)cc2)C1=O (stereo not drawn),895
17,CN1C(=O)c2cc(C(=O)NCCc3ccccc3)nn2CC1(C)C(=O)NC1CCCCC1 (stereo not drawn),812
18,CCOC(=O)c1sc2nc(NC(=O)COc3ccccc3)sc2c1C,1040
19,CCc1ccc(NC(=O)C2(C)Oc3cccnc3N(CC)C2=O)cc1 (stereo not drawn),982
20,Cc1ccc(NC(=O)N2CCN(c3cc(-c4ccncc4)[nH]n3)CC2)c(C)c1,615
21,CC(C)CNC(=O)NCCC1CCN(S(=O)(=O)c2ccc(F)cc2)CC1,824
22,COc1ccc(Cl)cc1NC(=O)C1CCCN(c2cc(=O)n(C)c(=O)n2C)C1 (stereo not drawn),786
